Tests used:
Details in all cases: incubation time: 72 h
BT-474 [1] = assay: normalised response (% of control), CellTox Green; higher = less cell death (100 = DMSO, 0 = benzethonium chloride kill control)
In short: (§1)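 The table gives the normalised signal for a single concentration in each entry. Breast cancer cell lines were seeded (20 µl suspension) into 384-well plates holding compound at 5 concentrations in 10-fold steps over a compound-specific 10,000-fold range and incubated 72 h, then read for CellTox Green fluorescence (485/520 nm) and CellTiter-Glo luminescence. Normalisation on each plate used 0.1 % DMSO (100) and a positive kill control (0).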

BT-549 [2] = assay: as above
In short: as §1

CAL-120 [3] = assay: as above
In short: as §1

CAL-148 [4] = assay: as above
In short: as §1

CAL-51 [5] = assay: as above
In short: as §1

CAL-85-1 [6] = assay: as above
In short: as §1

DU-4475 [7] = assay: as above
In short: as §1

HCC1143 [8] = assay: as above
In short: as §1

HCC1599 [9] = assay: as above
In short: as §1

HDQ-P1 [10] = assay: as above
In short: as §1

MCF-10A [11] = assay: as above
In short: as §1

MDA-MB-231 [12] = assay: as above
In short: as §1

MDA-MB-436 [13] = assay: as above
In short: as §1

MDA-MB-453 [14] = assay: as above
In short: as §1

MDA-MB-468 [15] = assay: as above
In short: as §1

MFM-223 [16] = assay: as above
In short: as §1

BT-474 [17] = assay: normalised response (% of control), CellTiter-Glo; higher = more viable cells (100 = DMSO, 0 = benzethonium chloride kill control)
Description: (§2)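 DSRT, 72 h incubation, CellTox Green / CellTiter-Glo readout. Signal is normalised to DMSO and benzethonium chloride controls. Value is the normalised response at dose 3.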

BT-549 [18] = assay: as above
Description: as §2

CAL-120 [19] = assay: as above
Description: as §2

CAL-148 [20] = assay: as above
Description: as §2

CAL-51 [21] = assay: as above
Description: as §2

CAL-85-1 [22] = assay: as above
Description: as §2

DU-4475 [23] = assay: as above
Description: as §2

HCC1143 [24] = assay: as above
Description: as §2

HCC1599 [25] = assay: as above
Description: as §2

HCC1937 [26] = assay: as above
Description: as §2

HDQ-P1 [27] = assay: as above
Description: as §2

Hs578T [28] = assay: as above
Description: as §2

MCF-10A [29] = assay: as above
Description: as §2

MDA-MB-231 [30] = assay: as above
Description: as §2

MDA-MB-436 [31] = assay: as above
Description: as §2

MDA-MB-453 [32] = assay: as above
Description: as §2

MDA-MB-468 [33] = assay: as above
Description: as §2

MFM-223 [34] = assay: as above
Description: as §2

SK-BR-3 = assay: as above
Description: as §2

HCC1937 [35] = assay: normalised response (% of control), CellTox Green; higher = less cell death (100 = DMSO, 0 = benzethonium chloride kill control)
In short: as §1

Hs578T [36] = assay: as above
In short: as §1

| SMILES | normalised response (BT-474 [1]) | normalised response (BT-549 [2]) | normalised response (CAL-120 [3]) | normalised response (CAL-148 [4]) | normalised response (CAL-51 [5]) | normalised response (CAL-85-1 [6]) | normalised response (DU-4475 [7]) | normalised response (HCC1143 [8]) | normalised response (HCC1599 [9]) | normalised response (HDQ-P1 [10]) | normalised response (MCF-10A [11]) | normalised response (MDA-MB-231 [12]) | normalised response (MDA-MB-436 [13]) | normalised response (MDA-MB-453 [14]) | normalised response (MDA-MB-468 [15]) | normalised response (MFM-223 [16]) | normalised response (BT-474 [17]) | normalised response (BT-549 [18]) | normalised response (CAL-120 [19]) | normalised response (CAL-148 [20]) | normalised response (CAL-51 [21]) | normalised response (CAL-85-1 [22]) | normalised response (DU-4475 [23]) | normalised response (HCC1143 [24]) | normalised response (HCC1599 [25]) | normalised response (HCC1937 [26]) | normalised response (HDQ-P1 [27]) | normalised response (Hs578T [28]) | normalised response (MCF-10A [29]) | normalised response (MDA-MB-231 [30]) | normalised response (MDA-MB-436 [31]) | normalised response (MDA-MB-453 [32]) | normalised response (MDA-MB-468 [33]) | normalised response (MFM-223 [34]) | normalised response (SK-BR-3) | normalised response (HCC1937 [35]) | normalised response (Hs578T [36]) |
| --- | --- | --- | --- | --- | --- | --- | --- | --- | --- | --- | --- | --- | --- | --- | --- | --- | --- | --- | --- | --- | --- | --- | --- | --- | --- | --- | --- | --- | --- | --- | --- | --- | --- | --- | --- | --- | --- |
| COc1cc([C@@H]2c3cc4c(cc3[C@@H](O[C@@H]3O[C@@H]5CO[C@@H](c6cccs6)O[C@H]5[C@H](O)[C@H]3O)[C@H]3COC(=O)[C@H]23)OCO4)cc(OC)c1O [Teniposide] (100 nM) | 99.7% | 90.5% | 96% | 36.3% | 74.2% | 89.4% | 93.6% | 111% | 91.3% | 102% | 83.6% | 103% | 95.1% | 107% | 54.9% | 99.3% | 87.8% | 68% | 94.7% | 74.5% | 78.5% | 91.6% | 69.2% | 83.2% | 66.7% | 91.9% | 96.4% | 90% | 88.2% | 94.3% | 62.6% | 118% | 79.3% | 108% | 58.5% | – | – |
| COc1cc2nccc(Oc3ccc(NC(=O)Nc4cc(C)on4)c(Cl)c3)c2cc1OC [Tivozanib] (100 nM) | 96% | 109% | 96.9% | 102% | 108% | 98.6% | 96.9% | 89% | 104% | 94.8% | 96.3% | 94.9% | – | 97.2% | 110% | 103% | 93% | 106% | 94.2% | 88.5% | 99.6% | 99.5% | 98.1% | 102% | 102% | 95.1% | 104% | 93.7% | 94.5% | 96.2% | 91.2% | 87.7% | 93.6% | 86.1% | 83.3% | 117% | – |
| CC1=C(/C=C/C(C)=C/C=C/C(C)=C/C(=O)O)C(C)(C)CCC1 [Tretinoin] (100 nM) | 103% | 115% | 101% | 95.3% | 102% | 102% | 108% | 96.3% | 99.1% | 108% | 105% | 117% | 106% | 109% | 159% | 103% | 92.7% | 102% | 105% | 91.9% | 87.7% | 97.5% | 98.3% | 97.4% | 103% | 95.8% | 100% | 98.5% | 88.7% | 102% | 100% | 108% | 92% | 93.7% | 79.8% | 92.8% | – |
| COc1cc2c(NC3CCN(C(C)C)CC3)nc(C3CCCCC3)nc2cc1OCCCN1CCCC1 [UNC0638] (100 nM) | 101% | 63.7% | 100% | 96.8% | 99.5% | 111% | 97.4% | 107% | 101% | 102% | 98.3% | 102% | 94.6% | 99.2% | 119% | 102% | 94.1% | 101% | 101% | 88% | 97.3% | 98.8% | 86.5% | 100% | 80.8% | 92.2% | 97% | 97.4% | 88% | 92.2% | 102% | 92.7% | 83.8% | 88.6% | 80.1% | – | – |
| Oc1ncc(N(CCCl)CCCl)c(O)n1 [Uracil mustard] (100 nM) | 104% | 111% | 106% | 103% | 109% | 114% | 108% | 113% | 102% | – | 114% | 118% | 109% | 110% | 154% | 102% | 106% | 105% | 103% | 100% | 110% | 96.7% | 99.1% | 100% | 95.5% | 98% | 104% | 102% | 101% | 100% | 98.9% | 95.5% | 94.6% | 104% | 101% | 88% | 111% |

— the supplement of paper PMC4862054
